# Measured values: patent publication US20240246995A1, “PYRIMIDINONE DERIVATIVE AND PREPARATION METHOD THEREFOR, PHARMACEUTICAL COMPOSITION, AND USE” (SHANGHAI SIMR BIOTECHNOLOGY CO., LTD., priority 2021, published 2024)
# Target: T1, Lipoprotein-Related Phospholipase A2 (Lp-PLA2) in Human Plasma (Homo sapiens, UniProt Q13093)
# T1 construct: 40 μL of equally-divided and thawed mixed human plasma is pre-added; from tissue; host or cells: mixed (pooled) human plasma
# T1 sequence (Q13093 22-441): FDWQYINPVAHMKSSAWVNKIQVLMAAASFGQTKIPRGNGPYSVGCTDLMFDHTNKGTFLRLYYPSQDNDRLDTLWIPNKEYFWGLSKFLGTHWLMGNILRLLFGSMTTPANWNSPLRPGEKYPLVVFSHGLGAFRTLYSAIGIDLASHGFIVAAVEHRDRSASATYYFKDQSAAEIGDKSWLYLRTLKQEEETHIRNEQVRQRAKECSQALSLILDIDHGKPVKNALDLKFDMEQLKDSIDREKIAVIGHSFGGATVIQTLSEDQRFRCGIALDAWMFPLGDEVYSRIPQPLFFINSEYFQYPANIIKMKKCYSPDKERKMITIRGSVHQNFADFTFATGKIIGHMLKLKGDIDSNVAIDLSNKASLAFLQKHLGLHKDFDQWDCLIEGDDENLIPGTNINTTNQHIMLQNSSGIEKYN
# Experiment: Determination of Lp-PLA2 in human plasma (Thio-PAF assay)
# Type: biochemical
# Conditions: mixed human plasma, 2-thio-PAF substrate, 30 minutes pre-incubation at room temperature
# Source text: Determination of Lipoprotein-Related Phospholipase A2 (Lp-PLA2) in Human Plasma.
# Human plasma determination utilizes a thioester analogue of phosphatidylcholine (PAF), where hydrolysis leads to the formation of phospholipids containing free thiol groups. The amount of the thiol groups is continuously determined by reacting with CPM (7-diethylamino-3-(4′-maleimidophenyl)-4-methylcoumarin), which is maleimide with increased fluorescence after Michael addition of the thiol groups. This determination can detect the activity of Lp-PLA2 in human plasma, for example, determined by the specific inhibition of the Lp-PLA2 inhibitors.
# Thio-PAF determination, as quenched 75 μL determination, is carried out. A compound source plate is prepared by preparing a 1:3 (volume) series of diluents of each compound in pure DMSO on a 96-well microplate. A Rainin multi-channel pipette is used to transfer 3 μL of a compound on the compound source plate into a 96-well microplate where 57 μL of a determination buffer is pre-added, and the compound on the source plate is diluted by 20 folds. The above determination buffer contains 50 mM HEPES (pH 7.4), 150 mM NaCl, and 1 mM CHAPS. A Rainin multi-channel pipette is used to transfer 1 μL of the compound subjected to 20-fold dilution into a 96-well Greiner 655076 (black) microplate where 40 μL of equally-divided and thawed mixed human plasma is pre-added. The plate is oscillated for 20 seconds in an Elisa plate oscillator to be mixed evenly. After 30 minutes of pre-incubation at the room temperature, a Rainin multi-channel pipette is used to add 10 μL of a substrate solution to a 96-well Greiner 655076 (black) microplate, and the substrate solution contains 2.5 mM 2-thio-PAF [from ethanol mother liquor], 32 μM CPM [from DMSO mother liquor] and 3.2 mM NEM (N-ethylmaleimide) [newly prepared in DMSO for each experiment] in a determination buffer composed of 50 mM HEPES (pH 7.4), 150 mM NaCl, and 1 mM CHAPS. After 2 minutes, 25 μL of a 5% trifluoroacetic acid (TFA) aqueous solution is used for quenching the reaction. The plate is centrifuged at 2000 rpm for 1 minute. A Biotek Synergy H1 (H1MF) Elisa reader is used to read the plate at ex:380/em:485. GraphPad Prism 6.0 and Excel are used for IC50 data, curve, and QC analysis.
row,IC50,Compound
1,5.1 nM,"Cc1c(OCc2ccc(Oc3ccnc(C(F)(F)F)c3)c(F)c2)nc(=O)n2c1N1C[C@@H]3C[C@@]1(CC2)CO3 [Example 59, (7aS,10S)-2-((3-fluoro-4-((2-(trifluoromethyl)pyrid-4-yl)oxy)benzyl)oxy)-1-methyl-6,7,10, 11-tetrahydro-4H, 8H-7a,10-methyl-pyrimidinyl[6′,1′: 2,3]pyrimidinyl [6,1-c][1,4]oxazin-4-one]"
2,3.3 nM,"O=c1nc(OCc2ccc(Oc3ccnc(C(F)(F)F)c3)c(F)c2)c(F)c2n1CC[C@]13CO[C@H](CN21)C3 [Example 57, (7aS,10S)-1-fluoro-2-((3-fluoro-4-((2-(trifluoromethyl)pyrid-4-yl)oxy)benzyl)oxy)-6,7,10, 11-tetrahydro-4H, 8H-7a,10-methyl-pyrimidinyl[6′,1′: 2,3]pyrimidinyl [6,1-c][1,4]oxazin-4-one]"
3,10.6 nM,"O=c1nc(OCc2cc(F)c(Oc3ccc(Cl)c(C(F)(F)F)c3)c(F)c2)cc2n1CCC1COCCN21 (stereo not drawn) [Example 52, 2-((4-(4-chloro-3-(trifluoromethyl)phenoxy)-3,5-di-fluorobenzyl)oxy)-6,7,7a,8,10,11-hexahydro-4H-pyrimidinyl [6′,1′:2,3] pyrimido[6,1-c][1,4] oxazin-4-one]"
